Here are results for 9 compounds from patent US10329320B2, “Neuroactive steroids, compositions, and uses thereof” (Sage Therapeutics, Inc., priority 2015, dated 2019).

As a reminder, the IC50 is the point on the concentration scale where inhibition reaches its midpoint.

SMILES strings stand for the structures.

In this experiment the target is GABAA receptor ([35S]-TBPS binding, rat brain cortical membranes). Put plainly: Steroid inhibition of [35S]-TBPS binding (radioligand displacement). The conditions noted are these: 3 nM [35S]-TBPS, in the presence of 5 μM GABA. The method, then: TBPS binding assays using rat brain cortical membranes in the presence of 5 μM GABA has been described (Gee et al, J. Pharmacol. Exp. Ther. 1987, 241, 346-353; Hawkinson et al, Mol. Pharmacol. 1994, 46, 977-985; Lewin, A. H et al., Mol. Pharmacol. 1989, 35, 189-194).
Briefly, cortices are rapidly removed following decapitation of carbon dioxide-anesthetized Sprague-Dawley rats (200-250 g). The cortices are homogenized in 10 volumes of ice-cold 0.32 M sucrose using a glass/teflon homogenizer and centrifuged at 1500×g for 10 min at 4° C. The resultant supernatants are centrifuged at 10,000×g for 20 min at 4° C. to obtain the P2 pellets. The P2 pellets are resuspended in 200 mM NaCl/50 mM Na—K phosphate pH 7.4 buffer and centrifuged at 10,000×g for 10 min at 4° C. This washing procedure is repeated twice and the pellets are resuspended in 10 volumes of buffer. Aliquots (100 μL) of the membrane suspensions are incubated with 3 nM [^35S]-TBPS and 5 μL aliquots of test drug dissolved in dimethyl sulfoxide (DMSO) (final 0.5%) in the presence of 5 μM GABA. The incubation is brought to a final volume of 1.0 mL with buffer. Nonspecific binding is determined in the presence of 2 μM unlabeled TBPS and ranged from 15 to 25%. Following a 90 min incubation at room temp, the assays are terminated by filtration through glass fiber filters (Schleicher and Schuell No. 32) using a cell harvester (Brandel) and rinsed three times with ice-cold buffer. Filter bound radioactivity is measured by liquid scintillation spectrometry. Non-linear curve fitting of the overall data for each drug averaged for each concentration is done using Prism (GraphPad). […] The concentration of test compound producing 50% inhibition (IC50) of specific binding and the maximal extent of inhibition (Imax) are determined for the individual experiments with the same model used for the overall data and then the means ±SEM.s of the individual experiments are calculated.
Various compounds are or can be screened to determine their potential as modulators of [^35S]-TBPS binding in vitro. These assays are or can be performed in accordance with the above discussed procedures.
Background: In a radioligand displacement assay an active substance lowers the binding of a labelled ligand.
In the case of `CCOc1cnn(CC(=O)[C@H]2CC[C@H]3[C@@H]4CC[C@H]5C[C@](C)(O)CC[C@]5(COC)[C@H]4CC[C@]23C)c1` [Compound 61], the IC50 lay in the range of 0.1 to 0.5 µM.
Then `COC[C@]12CC[C@@](C)(O)C[C@@H]1CC[C@H]1[C@@H]3CC[C@H](C(=O)Cn4cc(C)cn4)[C@@]3(C)CC[C@@H]12` [Compound 60], with 0.1 to 0.5 µM.
Consider `COC[C@]12CC[C@@](C)(O)C[C@H]1CC[C@H]1[C@@H]3CC[C@H](C(=O)Cn4nnc5ccc(OC)cc54)[C@@]3(C)CC[C@@H]12` [Compound 25], for which the half-maximal inhibitory concentration (IC50) was less than 0.01 µM.
With `CC(C)OC[C@]12CC[C@@](C)(O)C[C@H]1CC[C@H]1[C@@H]3CC[C@H](C(=O)Cn4ncnn4)[C@@]3(C)CC[C@@H]12` [Compound 72] the figure was less than 0.01 µM; with `COC[C@]12CC[C@@](C)(O)C[C@@H]1CC[C@H]1[C@@H]3CC[C@H](C(=O)Cn4ncc5c(OC)cccc54)[C@@]3(C)CC[C@@H]12` [Compound 45], 0.05 to 0.1 µM.
As to `COC[C@]12CC[C@@](C)(O)C[C@H]1CC[C@H]1[C@@H]3CC[C@H](C(=O)Cn4nnc5ccccc54)[C@@]3(C)CC[C@@H]12` [Compound 18], the IC50 was less than 0.01 µM.
In the case of `COC[C@]12CC[C@@](C)(O)C[C@@H]1CC[C@H]1[C@@H]3CC[C@H](C(=O)Cn4cc5ccncc5n4)[C@@]3(C)CC[C@@H]12` [Compound 46], the 50% inhibitory concentration (IC50) lay within 0.01 to 0.05 µM.
For the compound `COC[C@]12CC[C@@](C)(O)C[C@H]1CC[C@H]1[C@@H]3CC[C@H](C(=O)Cn4cc(C(F)(F)F)cn4)[C@@]3(C)CC[C@@H]12` [Compound 67], the IC50 was 0.01 to 0.05 µM.
Turning to `COC[C@]12CC[C@@](C)(O)C[C@@H]1CC[C@H]1[C@@H]3CC[C@H](C(=O)Cn4ncc5cccnc54)[C@@]3(C)CC[C@@H]12` [Compound 47], the IC50 lay within 0.01 to 0.05 µM.
